This assay has as its system CHOK1 cells engineered to overexpress CXCR3. In words: Antibody dependent cellular cytotoxicity (ADCC) reporter assay. It counts as cell-based. Conditions: with anti-cotinine antibody (human IgG1 Fc, S239D/I332E), Jurkat FcγRIIIa NFAT-luciferase reporter cells, incubated about 12-18 hours, average of two experimental runs, EC50 in molar (M). The method, then: An antibody dependent cellular cytotoxicity (ADCC) reporter assay was conducted using the following four assay components: (i) ARM compound of Formula (I) targeting CXCR3 (concentrations ranging from 1 pM to 10 μM); (ii) anti-cotinine antibody having a heavy chain sequence of SEQ ID NO: 11 and a light chain sequence of SEQ ID NO: 12 (rabbit variable region with human IgG1 Fc domain containing DE mutation (S239D/I332E)) (concentrations ranging from 0.01 μg/mL-200 μg/mL); (iii) Target cells: CHOK1 cells engineered to overexpress CXCR3 (typically 1000-20,000 cells per well); and (iv) Reporter cells—Jurkat cells engineered to express FcγRIIIa with a reporter gene luciferase under the control of the NFAT promoter (typically 3000-75,000 cells per well). Reagents were combined in final volume of 20 μL in 384-well tissue culture treated plate. […]
Luminescence signal was measured on a microplate reader capable of measuring luminescence and signal:background was calculated by dividing the signal of a test well by the signal obtained when no compound of formula (I) was included in the assay. […]
ARMs compounds of Formula (I) were tested for ADCC activity in the above assay in two experimental runs and the results are shown in Table 3 below. […] The pEC50 value is the negative log of the EC50 value, wherein the EC50 value is half maximal effective concentration measured in molar (M). […]
(In general: Reporter assays use an easily measured gene product as a stand-in for the process of interest.)

Each structure is given as a SMILES string.

`CCOc1ccc(-n2c([C@@H](C)N(CC3CCN(C(=O)[C@H]4CC[C@H](NC(=O)CCCO[C@H]5CC[C@H](OCCNC(=O)[C@H]6CC(=O)N(C)[C@@H]6c6cccnc6)CC5)CC4)CC3)C(=O)Cc3ccc(F)c(C(F)(F)F)c3)nc3ncccc3c2=O)cc1` (racemic) [Example 2, (2S,3S)-N-(2-(((1R,4S)-4-(4-(((1S,4S)-4-(4-((N-((R)-1-(3-(4-ethoxyphenyl)-4-oxo-3,4-dihydropyrido[2,3-d]pyrimidin-2-yl)ethyl)-2-(4-fluoro-3-(trifluoromethyl)phenyl)acetamido)methyl)piperidine-1-carbonyl)cyclohexyl)amino)-4-oxobutoxy)cyclohexyl)oxy)ethyl)-1-methyl-5-oxo-2-(pyridin-3-yl)pyrrolidine-3-carboxamide]: under “Cricetulus griseus, read-out: ADCC Reporter Assay pEC50 (converted)”, the EC50 is 3.98e-09 M.
As to `CCOc1ccc(-n2c([C@@H](C)N(CC3CCN(C(=O)C4CCC(NC(=O)CCCOC5CCC(OCCNC(=O)[C@H]6CC(=O)N(C)[C@@H]6c6cccnc6)CC5)CC4)CC3)C(=O)Cc3ccc(F)c(C(F)(F)F)c3)nc3ncccc3c2=O)cc1` (stereo partly drawn) [Example 1, (2S,3S)—N-(2-(((1R,4S)-4-(4-(((1R,4R)-4-(4-((N-((R)-1-(3-(4-ethoxyphenyl)-4-oxo-3,4-dihydropyrido[2,3-d]pyrimidin-2-yl)ethyl)-2-(4-fluoro-3-(trifluoromethyl)phenyl)acetamido)methyl)piperidine-1-carbonyl)cyclohexyl)amino)-4-oxobutoxy)cyclohexyl)oxy)ethyl)-1-methyl-5-oxo-2-(pyridin-3-yl)pyrrolidine-3-carboxamide], the “ADCC Reporter Assay pEC50” value worked out at 7.7.
